Key:
Assay in all cases: relative viability (nuclei count vs DMSO), 5 days (fraction); higher = more cells survive
201T = test system: 201T
Procedure, shortened: (§1)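 Lung cancer cell lines in 1536-well plates were dosed by pin tool the day after seeding, either with one drug alone or with a fixed anchor-drug dose plus five library-drug doses (not always all listed) in √10 steps. After 5 days, cells were fixed and their nuclei stained in one step (final 0.05% Triton X-100, 1% formaldehyde, 1 ug/ml Hoechst), then counted on 4× images. Relative viability is the nuclei count in treated wells divided by that in vehicle wells. Values are medians of duplicate plates.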

BEN = test system: BEN
Procedure, shortened: as §1

COR-L 105 = test system: COR-L 105
Procedure, shortened: as §1

EKVX = test system: EKVX
Procedure, shortened: as §1

EPLC-272H = test system: EPLC-272H
Procedure, shortened: as §1

H3255 = test system: H3255
Procedure, shortened: as §1

HCC-44 = test system: HCC-44
Procedure, shortened: as §1

HCC-827 = test system: HCC-827
Procedure, shortened: as §1

LCLC-97TM1 = test system: LCLC-97TM1
Procedure, shortened: as §1

LOU-NH91 = test system: LOU-NH91
Procedure, shortened: as §1

LU99A = test system: LU99A
Procedure, shortened: as §1

NCI-H1437 = test system: NCI-H1437
Procedure, shortened: as §1

NCI-H1666 = test system: NCI-H1666
Procedure, shortened: as §1

NCI-H1975 = test system: NCI-H1975
Procedure, shortened: as §1

NCI-H2085 = test system: NCI-H2085
Procedure, shortened: as §1

NCI-H2087 = test system: NCI-H2087
Procedure, shortened: as §1

NCI-H2170 = test system: NCI-H2170
Procedure, shortened: as §1

NCI-H2342 = test system: NCI-H2342
Procedure, shortened: as §1

NCI-H647 = test system: NCI-H647
Procedure, shortened: as §1

NCI-H650 = test system: NCI-H650
Procedure, shortened: as §1

PC-3 [JPC-3] = test system: PC-3 [JPC-3]
Procedure, shortened: as §1

SW 1573 = test system: SW 1573
Procedure, shortened: as §1

Q: COc1nc(C)cnc1NS(=O)(=O)c1cccnc1-c1ccc(-c2nnco2)cc1 [Zibotentan] + Cc1cc(Nc2cc(N3CCN(C)CC3)nc(Sc3ccc(NC(=O)C4CC4)cc3)n2)n[nH]1 [Tozasertib] (partner 0.1 µM) was tested. Which relative viability (201T; first compound 0.08 µM) did it give?
A: The relative viability was 1.07.

Q: And the relative viability (201T; first compound 0.253 µM)?
A: Its relative viability is 0.881.

Q: What about the relative viability (201T; first compound 0.8 µM) of the same molecule?
A: Its relative viability is 0.955.

Q: And the relative viability (201T; first compound 2.53 µM)?
A: Its relative viability is 1.04.

Q: And the relative viability (BEN; first compound 0.08 µM)?
A: The relative viability was 0.542.

Q: What about the relative viability (BEN; first compound 0.253 µM) of the same molecule?
A: The relative viability was 0.426.

Q: What about the relative viability (BEN; first compound 0.8 µM) of the same molecule?
A: The relative viability was 0.473.

Q: And the relative viability (BEN; first compound 2.53 µM)?
A: The relative viability was 0.642.

Q: And the relative viability (COR-L 105; first compound 0.08 µM)?
A: The relative viability was 0.309.

Q: And the relative viability (COR-L 105; first compound 0.253 µM)?
A: Its relative viability is 0.344.

Q: And the relative viability (COR-L 105; first compound 0.8 µM)?
A: The relative viability was 0.371.

Q: What about the relative viability (COR-L 105; first compound 2.53 µM) of the same molecule?
A: The relative viability was 0.362.

Q: And the relative viability (EKVX; first compound 0.08 µM)?
A: The relative viability was 0.414.

Q: What about the relative viability (EKVX; first compound 0.253 µM) of the same molecule?
A: The relative viability was 0.348.

Q: And the relative viability (EKVX; first compound 0.8 µM)?
A: Its relative viability is 0.365.

Q: What about the relative viability (EKVX; first compound 2.53 µM) of the same molecule?
A: Its relative viability is 0.428.

Q: And the relative viability (EPLC-272H; first compound 0.08 µM)?
A: Its relative viability is 0.264.

Q: What about the relative viability (EPLC-272H; first compound 0.253 µM) of the same molecule?
A: Its relative viability is 0.234.

Q: What about the relative viability (EPLC-272H; first compound 0.8 µM) of the same molecule?
A: Its relative viability is 0.331.

Q: What about the relative viability (EPLC-272H; first compound 2.53 µM) of the same molecule?
A: Its relative viability is 0.281.

Q: What about the relative viability (H3255; first compound 0.08 µM) of the same molecule?
A: The relative viability was 0.693.

Q: And the relative viability (H3255; first compound 0.253 µM)?
A: The relative viability was 0.604.

Q: And the relative viability (H3255; first compound 0.8 µM)?
A: The relative viability was 0.742.

Q: What about the relative viability (H3255; first compound 2.53 µM) of the same molecule?
A: Its relative viability is 0.888.

Q: And the relative viability (HCC-44; first compound 0.08 µM)?
A: Its relative viability is 1.33.

Q: And the relative viability (HCC-44; first compound 0.8 µM)?
A: Its relative viability is 0.852.

Q: And the relative viability (HCC-44; first compound 2.53 µM)?
A: The relative viability was 0.862.

Q: What about the relative viability (HCC-827; first compound 0.08 µM) of the same molecule?
A: The relative viability was 0.438.

Q: What about the relative viability (HCC-827; first compound 0.253 µM) of the same molecule?
A: The relative viability was 0.411.

Q: And the relative viability (HCC-827; first compound 0.8 µM)?
A: Its relative viability is 0.409.

Q: What about the relative viability (HCC-827; first compound 2.53 µM) of the same molecule?
A: The relative viability was 0.371.

Q: And the relative viability (LCLC-97TM1; first compound 0.08 µM)?
A: Its relative viability is 0.228.

Q: What about the relative viability (LCLC-97TM1; first compound 0.253 µM) of the same molecule?
A: The relative viability was 0.237.

Q: What about the relative viability (LCLC-97TM1; first compound 0.8 µM) of the same molecule?
A: The relative viability was 0.21.

Q: And the relative viability (LCLC-97TM1; first compound 2.53 µM)?
A: The relative viability was 0.233.

Q: And the relative viability (LOU-NH91; first compound 0.08 µM)?
A: Its relative viability is 0.729.

Q: What about the relative viability (LOU-NH91; first compound 0.253 µM) of the same molecule?
A: The relative viability was 0.586.

Q: What about the relative viability (LOU-NH91; first compound 0.8 µM) of the same molecule?
A: The relative viability was 0.722.

Q: What about the relative viability (LOU-NH91; first compound 2.53 µM) of the same molecule?
A: The relative viability was 0.669.

Q: What about the relative viability (LU99A; first compound 0.08 µM) of the same molecule?
A: The relative viability was 0.319.

Q: And the relative viability (LU99A; first compound 0.253 µM)?
A: Its relative viability is 0.25.

Q: What about the relative viability (LU99A; first compound 0.8 µM) of the same molecule?
A: Its relative viability is 0.302.

Q: And the relative viability (LU99A; first compound 2.53 µM)?
A: Its relative viability is 0.301.

Q: What about the relative viability (NCI-H1437; first compound 0.08 µM) of the same molecule?
A: The relative viability was 0.421.

Q: And the relative viability (NCI-H1437; first compound 0.253 µM)?
A: The relative viability was 0.378.

Q: What about the relative viability (NCI-H1437; first compound 0.8 µM) of the same molecule?
A: The relative viability was 0.38.

Q: What about the relative viability (NCI-H1437; first compound 2.53 µM) of the same molecule?
A: Its relative viability is 0.448.

Q: What about the relative viability (NCI-H1666; first compound 0.08 µM) of the same molecule?
A: The relative viability was 0.582.

Q: And the relative viability (NCI-H1666; first compound 0.253 µM)?
A: Its relative viability is 0.593.

Q: What about the relative viability (NCI-H1666; first compound 0.8 µM) of the same molecule?
A: The relative viability was 0.784.

Q: What about the relative viability (NCI-H1666; first compound 2.53 µM) of the same molecule?
A: Its relative viability is 0.646.

Q: What about the relative viability (NCI-H1975; first compound 0.08 µM) of the same molecule?
A: Its relative viability is 0.732.

Q: And the relative viability (NCI-H1975; first compound 0.253 µM)?
A: Its relative viability is 0.695.

Q: And the relative viability (NCI-H1975; first compound 0.8 µM)?
A: The relative viability was 0.727.

Q: What about the relative viability (NCI-H1975; first compound 2.53 µM) of the same molecule?
A: The relative viability was 0.831.

Q: What about the relative viability (NCI-H2085; first compound 0.08 µM) of the same molecule?
A: The relative viability was 0.788.

Q: What about the relative viability (NCI-H2085; first compound 0.253 µM) of the same molecule?
A: The relative viability was 0.698.

Q: And the relative viability (NCI-H2085; first compound 0.8 µM)?
A: Its relative viability is 0.703.

Q: What about the relative viability (NCI-H2085; first compound 2.53 µM) of the same molecule?
A: Its relative viability is 0.821.

Q: What about the relative viability (NCI-H2087; first compound 0.08 µM) of the same molecule?
A: The relative viability was 0.249.

Q: What about the relative viability (NCI-H2087; first compound 0.253 µM) of the same molecule?
A: Its relative viability is 0.268.

Q: And the relative viability (NCI-H2087; first compound 0.8 µM)?
A: The relative viability was 0.249.

Q: And the relative viability (NCI-H2087; first compound 2.53 µM)?
A: The relative viability was 0.238.

Q: What about the relative viability (NCI-H2170; first compound 0.08 µM) of the same molecule?
A: Its relative viability is 0.789.

Q: And the relative viability (NCI-H2170; first compound 0.253 µM)?
A: Its relative viability is 0.693.

Q: What about the relative viability (NCI-H2170; first compound 0.8 µM) of the same molecule?
A: Its relative viability is 0.809.

Q: And the relative viability (NCI-H2170; first compound 2.53 µM)?
A: Its relative viability is 0.741.

Q: And the relative viability (NCI-H2342; first compound 0.08 µM)?
A: The relative viability was 0.496.

Q: What about the relative viability (NCI-H2342; first compound 0.253 µM) of the same molecule?
A: The relative viability was 0.446.

Q: What about the relative viability (NCI-H2342; first compound 0.8 µM) of the same molecule?
A: The relative viability was 0.493.

Q: What about the relative viability (NCI-H2342; first compound 2.53 µM) of the same molecule?
A: The relative viability was 0.667.

Q: And the relative viability (NCI-H647; first compound 0.08 µM)?
A: Its relative viability is 0.307.

Q: What about the relative viability (NCI-H647; first compound 0.253 µM) of the same molecule?
A: The relative viability was 0.183.

Q: And the relative viability (NCI-H647; first compound 0.8 µM)?
A: Its relative viability is 0.298.

Q: What about the relative viability (NCI-H647; first compound 2.53 µM) of the same molecule?
A: The relative viability was 0.262.

Q: And the relative viability (NCI-H650; first compound 0.08 µM)?
A: Its relative viability is 0.871.

Q: And the relative viability (NCI-H650; first compound 0.253 µM)?
A: Its relative viability is 0.699.

Q: What about the relative viability (NCI-H650; first compound 0.8 µM) of the same molecule?
A: Its relative viability is 0.692.

Q: And the relative viability (NCI-H650; first compound 2.53 µM)?
A: The relative viability was 0.738.

Q: What about the relative viability (PC-3 [JPC-3]; first compound 0.08 µM) of the same molecule?
A: The relative viability was 0.869.

Q: What about the relative viability (PC-3 [JPC-3]; first compound 0.253 µM) of the same molecule?
A: Its relative viability is 0.903.

Q: What about the relative viability (PC-3 [JPC-3]; first compound 0.8 µM) of the same molecule?
A: The relative viability was 0.853.

Q: And the relative viability (PC-3 [JPC-3]; first compound 2.53 µM)?
A: The relative viability was 0.878.

Q: And the relative viability (SW 1573; first compound 0.08 µM)?
A: Its relative viability is 0.229.

Q: And the relative viability (SW 1573; first compound 0.8 µM)?
A: Its relative viability is 0.257.

Q: And the relative viability (SW 1573; first compound 2.53 µM)?
A: Its relative viability is 0.221.
